Data set [1] is described as follows: AMES experiments. Type of data set: cell-based.
Data set [2] is described as follows: Key water activity research, crystal form A and hydrate crystal form E. Type of data set: physicochemical. The following applies: room temperature.
The nature of data set [3]: Room temperature storage of crystal form F (XRPD). The settings on record: room temperature (18-20° C./45~75% RH), about 3 days. In kind it is physicochemical.
Data set [4] is described as follows: Suspension competition of anhydrous crystal forms A/G. In kind it is physicochemical. As for the experimental part:
In order to study the stability relationship between other anhydrous crystal forms (crystal forms A/G), suspension competition experiments were conducted at room temperature and 60° C. using ACN and EtOAc as solvents.

On to `CC(=O)Nc1ccc(CCN2C(=O)COC2c2cn(-c3ccc(Br)cc3)nc2-c2ccc(F)cc2)cc1[N+](=O)[O-]` (centres unmarked) [3-(4-acetylamino-3-nitrophenylethyl)-2-(3-(4-fluorophenyl)-1-(4-bromophenyl)-1H-pyrazole-4-yl) oxazolidin-4-one], for which the AMES experiments result in data set [1] is “positive”.
In the case of `O=C1CO[C@H](c2cn(-c3ccc(Br)cc3)nc2-c2ccc(F)cc2)N1CCc1ccc2[nH]c(=O)[nH]c2c1`, the “The crystal form obtained (key water activity)” value in data set [2] (Water activity(Aw) 0, Acetone/H2O 1000:0 v/v) is listed as “Crystal form A”; in data set [2] (Water activity(Aw) 0.2, Acetone/H2O 984:16 v/v) it was “Crystal form A”; in data set [2] (Water activity(Aw) 0.4, Acetone/H2O 948:52 v/v), “Crystal form A”; in data set [2] (Water activity(Aw) 0.6, Acetone/H2O 857:143 v/v), “Crystal form A”; in data set [2] (Water activity(Aw) 0.8, Acetone/H2O 604:396 v/v), “Crystal form A”; in data set [2] (Water activity(Aw) 1.0, Acetone/H2O 0:1000 v/v) it was “Crystal form E”.
With `Nc1ccc(CCN2C(=O)COC2c2cn(-c3ccc(Br)cc3)nc2-c2ccc(F)cc2)cc1[N+](=O)[O-]` (centres unmarked) [3-(4-amino-3-nitrophenylethyl)-2-(1-(4-bromophenyl)-3-(4-fluorophenyl)-1H-pyrazole-4-yl) oxazolidin-4-one], the AMES experiments result in data set [1] is “positive”.
As to `O=C1CO[C@H](c2cn(-c3ccc(Br)cc3)nc2-c2ccc(F)cc2)N1CCc1ccc2[nH]c(=O)[nH]c2c1` [Crystal form F], the “crystal form after being placed at room temperature” value in data set [3] was “transformed into crystal form E”.
As for `O=C1CO[C@H](c2cn(-c3ccc(Br)cc3)nc2-c2ccc(F)cc2)N1CCc1ccc2[nH]c(=O)[nH]c2c1` [Crystal form A/G], the “The crystal form obtained (suspension competition)” value in data set [4] (ACN, 60° C., test D220-PS-14-A3) is “Crystal form A”; in data set [4] (ACN, Room temperature(~18° C.), test D220-PS-14-A1), “Crystal form A”; in data set [4] (EtOAc, 60° C., test D220-PS-14-A4), “Crystal form A”; in data set [4] (EtOAc, Room temperature(~18° C.), test D220-PS-14-A2) it was “Crystal form A”.
Turning to `Nc1ccc(CCN2C(=O)COC2c2cn(-c3ccc(Br)cc3)nc2-c2ccc(F)cc2)cc1N` (centres unmarked) [2-(1-(4-bromophenyl)-3-(4-fluorophenyl)-1H-pyrazole-4-yl)-3-(3,4-diaminophenethyl) oxazolidin-4-one], the AMES experiments entry in data set [1] was “positive”.

(Values after patent US12686674B2, “Crystal form of compound represented by formula I, and preparation therefor and application thereof” (Shanghai Zhimeng Biopharma, Inc., priority 2021, dated 2026).)
